Values after ≈ are worked out from the molar mass of the structure shown.
Assays:
[1] = test system: Candida albicans; test: Fungicidal activity against Candida albicans CPCC400616 measured after 48 hrs; type: functional
[2] = test system: Candida albicans; test: Antibiofilm activity against FCZ-Resistant Candida albicans CPCC400616 assessed as sessile minimum inhibitory concentration of biofilm formation at 50% after 1.5 hrs by XTT assay; type: functional
[3] = test system: Nakaseomyces glabratus; test: Antifungal activity against clinical isolate Candida glabrata measured after 24 hrs by micro-broth dilution assay; type: functional
[4] = test system: Candida albicans; test: Antifungal activity against Candida albicans 901 measured after 24 hrs by micro-broth dilution assay; type: functional
[5] = test system: Candida albicans; test: Antifungal activity against Candida albicans ATCC SC5314 measured after 24 hrs by micro-broth dilution assay; type: functional
[6] = test system: Cryptococcus neoformans; test: Antifungal activity against Cryptococcus neoformans CGMCC2.3161 measured after 72 hrs by micro-broth dilution assay; type: functional
[7] = test system: [Candida] zeylanoides; test: Antifungal activity against Candida zeylanoides CMGCC2.3739 measured after 24 hrs by micro-broth dilution assay; type: functional; settings: Dujonia zeylanoides
[8] = test system: Candida albicans; test: Antibiofilm activity against FCZ-Resistant Candida albicans CPCC400616 assessed as sessile minimum inhibitory concentration of biofilm formation at 50% after 6 hrs by XTT assay; type: functional
[9] = test system: Candida albicans; test: Antibiofilm activity against FCZ-Resistant Candida albicans CPCC400616 assessed as sessile minimum inhibitory concentration of biofilm formation at 50% after 24 hrs by XTT assay; type: functional
[10] = test system: Candida albicans; test: Antibiofilm activity against FCZ-Resistant Candida albicans CPCC400616 assessed as sessile minimum inhibitory concentration of biofilm formation at 80% after 1.5 hrs by XTT assay; type: functional
[11] = test system: Candida albicans; test: Antifungal activity against fluconazole-resistant Candida albicans strain 904 measured after 24 hrs by micro-broth dilution assay; type: functional
[12] = test system: Candida albicans; test: Antibiofilm activity against FCZ-Resistant Candida albicans CPCC400616 assessed as sessile minimum inhibitory concentration of biofilm formation at 80% after 24 hrs by XTT assay; type: functional
[13] = Ratio of MFC for fungicidal activity against Candida albicans CPCC400616 to MIC for Antifungal activity against Candida albicans CPCC400616; type: functional; settings: time 24 hrs
[14] = test system: Candida albicans; test: Antifungal activity against Candida albicans CPCC400616 measured after 24 hrs by micro-broth dilution assay; type: functional
[15] = test system: Candida parapsilosis; test: Antifungal activity against Candida parapsilosis ATCC 22019 measured after 24 hrs by micro-broth dilution assay; type: functional; settings: Lodderomyces parapsilosis
[16] = test system: Candida albicans; test: Antifungal activity against fluconazole-resistant Candida albicans 632 measured after 24 hrs by micro-broth dilution assay; type: functional
[17] = test system: Candida albicans; test: Antibiofilm activity against FCZ-Resistant Candida albicans CPCC400616 assessed as sessile minimum inhibitory concentration of biofilm formation at 80% after 6 hrs by XTT assay; type: functional
[18] = test system: Pichia kudriavzevii; test: Antifungal activity against Candida krusei AS 2.1045 measured after 24 hrs by micro-broth dilution assay; type: functional
[19] = test system: Candida albicans; test: Antifungal activity against fluconazole-resistant Candida albicans CaR measured after 24 hrs by micro-broth dilution assay; type: functional
[20] = test system: Aspergillus fumigatus; test: Antifungal activity against Aspergillus fumigatus CGMCC 3.7795 measured after 72 hrs by micro-broth dilution assay; type: functional
[21] = test system: Candida albicans; test: Antibiofilm activity against FCZ-Resistant Candida albicans CPCC400616 assessed as sessile minimum inhibitory concentration of biofilm formation at 50% after 3 hrs by XTT assay; type: functional
[22] = Ratio of hemolysis activity in rabbit RBC to MIC for Candida albicans; type: toxicity; settings: rabbit red blood cells (RBC)
[23] = test system: Candida albicans; test: Antibiofilm activity against FCZ-Resistant Candida albicans CPCC400616 assessed as sessile minimum inhibitory concentration of biofilm formation at 80% after 3 hrs by XTT assay; type: functional
[24] = test system: Erythrocyte; test: Hemolytic activity in rabbit RBC assessed as hemolysis ratio at 1 ug/ml measured after 3 hrs relative to control; type: ADME, cell-based, Oryctolagus cuniculus; settings: dose 1 µg/ml
[25] = test system: Candida albicans; test: Antifungal activity against fluconazole-resistant Candida albicans 17 measured after 24 hrs by micro-broth dilution assay; type: functional
[26] = test system: Candida albicans; test: Inhibition of CYP51 in azole-resistant Candida albicans ATCC […] assessed as Eburicol level at 8 ug/ml incubated for 16 hrs by LC-MS analysis relative to control; parameters: scale not given: the % may be the effect or the level left; settings: dose 8.0 µg/ml
[27] = test system: Candida albicans; test: Inhibition of CYP51 in azole-resistant Candida albicans ATCC […] assessed as Eburicol level at 0.03125 ug/ml incubated for 16 hrs by LC-MS analysis relative to control; parameters: scale not given: the % may be the effect or the level left; settings: dose 0.03125 µg/ml
[28] = test system: Candida albicans; test: Inhibition of CYP51 in azole-resistant Candida albicans ATCC […] assessed as Obtusifoliol level at 0.5 ug/ml incubated for 16 hrs by LC-MS analysis relative to control; parameters: scale not given: the % may be the effect or the level left; settings: dose 0.5 µg/ml
[29] = test system: Candida albicans; test: Inhibition of CYP51 in azole-resistant Candida albicans ATCC […] assessed as Eburicol level at 2 ug/ml incubated for 16 hrs by LC-MS analysis relative to control; parameters: scale not given: the % may be the effect or the level left; settings: dose 2.0 µg/ml
[30] = test system: Candida albicans; test: Inhibition of CYP51 in azole-resistant Candida albicans ATCC […] assessed as Lanosterol level at 0.125 ug/ml incubated for 16 hrs by LC-MS analysis relative to control; parameters: scale not given: the % may be the effect or the level left; settings: dose 0.125 µg/ml
[31] = test system: Candida albicans; test: Inhibition of CYP51 in azole-resistant Candida albicans ATCC […] assessed as Obtusifoliol level at 0.03125 ug/ml incubated for 16 hrs by LC-MS analysis relative to control; parameters: scale not given: the % may be the effect or the level left; settings: dose 0.03125 µg/ml
[32] = test system: Candida albicans; test: Inhibition of CYP51 in azole-resistant Candida albicans ATCC […] assessed as Obtusifoliol level at 2 ug/ml incubated for 16 hrs by LC-MS analysis relative to control; parameters: scale not given: the % may be the effect or the level left; settings: dose 2.0 µg/ml
[33] = test system: Candida albicans; test: Inhibition of CYP51 in azole-resistant Candida albicans ATCC […] assessed as Obtusifoliol level at 8 ug/ml incubated for 16 hrs by LC-MS analysis relative to control; parameters: scale not given: the % may be the effect or the level left; settings: dose 8.0 µg/ml
[34] = test system: Candida albicans; test: Inhibition of CYP51 in azole-resistant Candida albicans ATCC […] assessed as inhibition of ergosterol biosynthesis by measuring ergosterol content at 8 ug/ml incubated for 16 hrs by LC-MS analysis relative to control; parameters: scale not given: the % may be the effect or the level left; settings: dose 8.0 µg/ml
[35] = test system: Candida albicans; test: Inhibition of CYP51 in azole-resistant Candida albicans ATCC […] assessed as ergosterol level at 0.5 ug/ml incubated for 16 hrs by LC-MS analysis relative to control; parameters: scale not given: the % may be the effect or the level left; settings: dose 0.5 µg/ml
[36] = test system: Candida albicans; test: Inhibition of CYP51 in azole-resistant Candida albicans ATCC […] assessed as ergosterol level at 2 ug/ml incubated for 16 hrs by LC-MS analysis relative to control; parameters: scale not given: the % may be the effect or the level left; settings: dose 2.0 µg/ml
[37] = test system: Candida albicans; test: Inhibition of CYP51 in azole-resistant Candida albicans ATCC […] assessed as Lanosterol level at 0.03125 ug/ml incubated for 16 hrs by LC-MS analysis relative to control; parameters: scale not given: the % may be the effect or the level left; settings: dose 0.03125 µg/ml
[38] = test system: Candida albicans; test: Inhibition of CYP51 in azole-resistant Candida albicans ATCC […] assessed as ergosterol level at 0.125 ug/ml incubated for 16 hrs by LC-MS analysis relative to control; parameters: scale not given: the % may be the effect or the level left; settings: dose 0.125 µg/ml
[39] = test system: Candida albicans; test: Inhibition of CYP51 in azole-resistant Candida albicans ATCC […] assessed as Eburicol level at 0.125 ug/ml incubated for 16 hrs by LC-MS analysis relative to control; parameters: scale not given: the % may be the effect or the level left; settings: dose 0.125 µg/ml
[40] = test system: Candida albicans; test: Inhibition of CYP51 in azole-resistant Candida albicans ATCC […] assessed as Lanosterol level at 8 ug/ml incubated for 16 hrs by LC-MS analysis relative to control; parameters: scale not given: the % may be the effect or the level left; settings: dose 8.0 µg/ml
[41] = test system: Candida albicans; test: Inhibition of CYP51 in azole-resistant Candida albicans ATCC […] assessed as Eburicol level at 0.5 ug/ml incubated for 16 hrs by LC-MS analysis relative to control; parameters: scale not given: the % may be the effect or the level left; settings: dose 0.5 µg/ml
[42] = test system: Candida albicans; test: Inhibition of CYP51 in azole-resistant Candida albicans ATCC […] assessed as Obtusifoliol level at 0.125 ug/ml incubated for 16 hrs by LC-MS analysis relative to control; parameters: scale not given: the % may be the effect or the level left; settings: dose 0.125 µg/ml
[43] = test system: Candida albicans; test: Inhibition of CYP51 in azole-resistant Candida albicans ATCC […] assessed as Lanosterol level at 0.5 ug/ml incubated for 16 hrs by LC-MS analysis relative to control; parameters: scale not given: the % may be the effect or the level left; settings: dose 0.5 µg/ml
[44] = test system: Candida albicans; test: Inhibition of CYP51 in azole-resistant Candida albicans ATCC […] assessed as ergosterol level at 0.03125 ug/ml incubated for 16 hrs by LC-MS analysis relative to control; parameters: scale not given: the % may be the effect or the level left; settings: dose 0.03125 µg/ml
[45] = test system: Candida albicans; test: Inhibition of CYP51 in azole-resistant Candida albicans ATCC […] assessed as Lanosterol level at 2 ug/ml incubated for 16 hrs by LC-MS analysis relative to control; parameters: scale not given: the % may be the effect or the level left; settings: dose 2.0 µg/ml

SMILES | MIC [1] [µg/mL] | Activity [2] [µg/mL] | MIC [3] [µg/mL] | MIC [5] [µg/mL] | MIC [6] [µg/mL] | MIC [7] [µg/mL] | Activity [8] [µg/mL] | Activity [9] [µg/mL] | Activity [10] [µg/mL] | Activity [12] [µg/mL] | MFC/MIC ratio [13] | MIC [14] [µg/mL] | MIC [15] [µg/mL] | Activity [17] [µg/mL] | MIC [18] [µg/mL] | MIC [20] [µg/mL] | Activity [21] [µg/mL] | selectivity ratio [22] | Activity [23] [µg/mL] | other results
Fc1ccc(Br)c(C[Se]C(Cn2ccnc2)c2ccc(Cl)cc2Cl)c1 (centres undefined) | 0.0625 (≈ 0.123 µM) | 1 | 0.5 (≈ 0.986 µM) | 0.01 (≈ 0.0197 µM) | 0.25 (≈ 0.493 µM) | 0.5 (≈ 0.986 µM) | 8 | 128 | 8 | >128 | 4 | 0.02 (≈ 0.0394 µM) | 0.02 (≈ 0.0394 µM) | >128 | 0.13 (≈ 0.256 µM) | 0.5 (≈ 0.986 µM) | 8 | 256 | 64 | MIC [4]: 0.25 µg/mL (≈ 0.493 µM); MIC [11]: 0.13 µg/mL (≈ 0.256 µM); MIC [16]: 0.13 µg/mL (≈ 0.256 µM); MIC [19]: 0.13 µg/mL (≈ 0.256 µM); Activity [24]: 0.49 µg/mL; MIC [25]: 0.03 µg/mL (≈ 0.0592 µM)
Clc1ccc(COC(Cn2ccnc2)c2ccc(Cl)cc2Cl)c(Cl)c1 (centres undefined) [MICONAZOLE] | 2 (≈ 4.81 µM) | 16 | 0.5 (≈ 1.2 µM) | 0.03 (≈ 0.0721 µM) | 0.5 (≈ 1.2 µM) | 1 (≈ 2.4 µM) | >128 | >128 | 128 | >128 | 8 | 0.25 (≈ 0.601 µM) | 0.25 (≈ 0.601 µM) | >128 | 0.5 (≈ 1.2 µM) | 2 (≈ 4.81 µM) | 32 | 8 | 128 | Activity [26]: 74.2%; Activity [27]: 2.9%; Activity [28]: 6.1%; Activity [29]: 80.7%; Activity [30]: 14.1%; Activity [31]: 2.9%; Activity [32]: 9.7%; Activity [33]: 14.6%; Activity [34]: 0%; Activity [35]: 8.3%; Activity [36]: 5.49%; Activity [37]: 12.4%; Activity [38]: 7.3%; Activity [39]: 63.5%; Activity [40]: 7.8%; Activity [41]: 64.8%; Activity [42]: 7.2%; Activity [43]: 8.9%; Activity [44]: 11.3%; Activity [45]: 6.4%

Source: ChEMBL document CHEMBL4765323, “Design, synthesis, and biological evaluation of novel miconazole analogues containing selenium as potent antifungal agents” (Eur J Med Chem, 2020)
